Test results taken from ChEMBL document CHEMBL4118268, “Identification, Characterization, and Optimization of 2,8-Disubstituted-1,5-naphthyridines as Novel Plasmodium falciparum Phosphatidylinositol-4-kinase Inhibitors with in Vivo Efficacy in a Humanized Mouse Model of Malaria” (J Med Chem, 2018).

Experiments:
[1] = Metabolic stability in mouse liver microsomes assessed as parent compound remaining at 0.1 uM in presence of NADPH after 30 mins by LC-MS/MS analysis; assay type: ADME, microsome; details: read-out: Stability
[2] = Metabolic stability in human liver microsomes assessed as parent compound remaining at 0.1 uM in presence of NADPH after 30 mins by LC-MS/MS analysis; assay type: ADME, microsome; details: read-out: Stability
[3] = Metabolic stability in rat liver microsomes assessed as parent compound remaining at 0.1 uM in presence of NADPH after 30 mins by LC-MS/MS analysis; assay type: ADME, microsome; details: read-out: Stability
[4] = Octanol-phosphate buffer distribution coefficient, log D of the compound at pH 7.4 measured after 1 hr by HPLC method; assay type: physicochemical
[5] = Cmax in humanized NOD-scid IL2Rgamma null mouse infected with Plasmodium falciparum 3D70087/N9 at 10 mg/kg, po up to 96 hrs post dose by LC-MS/MS analysis; assay type: ADME, organism-based; set-up: dose 10 mg/kg, route oral; details: in vivo
[6] = system: Mus musculus; experiment: AUC in humanized NOD-scid IL2Rgamma null mouse infected with Plasmodium falciparum 3D70087/N9 at 50 mg/kg, po up to 24 hrs post dose by LC-MS/MS analysis; assay type: ADME, organism-based; set-up: time < 24 hr, dose 50 mg/kg, route oral; details: in vivo
[7] = Tmax in humanized NOD-scid IL2Rgamma null mouse infected with Plasmodium falciparum 3D70087/N9 at 5 mg/kg, po up to 96 hrs post dose by LC-MS/MS analysis; assay type: ADME, organism-based; details: in vivo
[8] = Tmax in Balb/c mouse pretreated with CYP inhibitor ABT at 5 mg/kg, po by LC-MS analysis; assay type: ADME, organism-based; details: in vivo
[9] = system: Mus musculus; experiment: AUC in humanized NOD-scid IL2Rgamma null mouse infected with Plasmodium falciparum 3D70087/N9 at 10 mg/kg, po up to 24 hrs post dose by LC-MS/MS analysis; assay type: ADME, organism-based; set-up: time < 24 hr, dose 10 mg/kg, route oral; details: in vivo
[10] = In vivo drug metabolism in Balb/c mouse assessed as naphthyridine core or pyridine substituent oxidation metabolite formation in plasma at 5 mg/kg, po or […], iv by LC-MS analysis; assay type: ADME, organism-based
[11] = Cmax in humanized NOD-scid IL2Rgamma null mouse infected with Plasmodium falciparum 3D70087/N9 at […], po up to 96 hrs post dose by LC-MS/MS analysis; assay type: ADME, organism-based; set-up: dose 2.5 mg/kg, route oral; details: in vivo
[12] = Tmax in humanized NOD-scid IL2Rgamma null mouse infected with Plasmodium falciparum 3D70087/N9 at […], po up to 96 hrs post dose by LC-MS/MS analysis; assay type: ADME, organism-based; details: in vivo
[13] = Apparent half life in Balb/c mouse pretreated with CYP inhibitor ABT at 5 mg/kg, po by LC-MS analysis; assay type: ADME, organism-based; details: in vivo, read-out: t1/2(app) (converted)
[14] = Cmax in humanized NOD-scid IL2Rgamma null mouse infected with Plasmodium falciparum 3D70087/N9 at 50 mg/kg, po up to 96 hrs post dose by LC-MS/MS analysis; assay type: ADME, organism-based; set-up: dose 50 mg/kg, route oral; details: in vivo
[15] = Cmax in Balb/c mouse pretreated with CYP inhibitor ABT at 5 mg/kg, po by LC-MS analysis; assay type: ADME, organism-based; set-up: dose 5 mg/kg, route oral; details: in vivo
[16] = system: Mus musculus; experiment: AUC in humanized NOD-scid IL2Rgamma null mouse infected with Plasmodium falciparum 3D70087/N9 at […], po up to 24 hrs post dose by LC-MS/MS analysis; assay type: ADME, organism-based; set-up: dose 2.5 mg/kg, time < 24 hr, route oral; details: in vivo
[17] = Tmax in humanized NOD-scid IL2Rgamma null mouse infected with Plasmodium falciparum 3D70087/N9 at 10 mg/kg, po up to 96 hrs post dose by LC-MS/MS analysis; assay type: ADME, organism-based; details: in vivo
[18] = system: Mus musculus; experiment: AUC (0 to infinity) in Balb/c mouse at […], iv by LC-MS analysis; assay type: ADME, organism-based; set-up: dose 1.5 mg/kg, time infinity, route intravenous; details: in vivo
[19] = Cmax in humanized NOD-scid IL2Rgamma null mouse infected with Plasmodium falciparum 3D70087/N9 at 5 mg/kg, po up to 96 hrs post dose by LC-MS/MS analysis; assay type: ADME, organism-based; set-up: dose 5 mg/kg, route oral; details: in vivo
[20] = system: Mus musculus; experiment: AUC in humanized NOD-scid IL2Rgamma null mouse infected with Plasmodium falciparum 3D70087/N9 at 5 mg/kg, po up to 24 hrs post dose by LC-MS/MS analysis; assay type: ADME, organism-based; set-up: time < 24 hr, dose 5 mg/kg, route oral; details: in vivo
[21] = Volume of distribution in Balb/c mouse at […], iv by LC-MS analysis; assay type: ADME, organism-based; details: in vivo
[22] = Tmax in humanized NOD-scid IL2Rgamma null mouse infected with Plasmodium falciparum 3D70087/N9 at 50 mg/kg, po up to 96 hrs post dose by LC-MS/MS analysis; assay type: ADME, organism-based; details: in vivo
[23] = Cmax in Balb/c mouse at 20 mg/kg, po by LC-MS analysis; assay type: ADME, organism-based; set-up: dose 20 mg/kg, route oral; details: in vivo
[24] = system: Mus musculus; experiment: AUC (0 to infinity) in Balb/c mouse at 20 mg/kg, po by LC-MS analysis; assay type: ADME, organism-based; set-up: dose 20 mg/kg, route oral, time infinity; details: in vivo
[25] = Cmax in Balb/c mouse pretreated with CYP inhibitor ABT at 20 mg/kg, po by LC-MS analysis; assay type: ADME, organism-based; set-up: dose 20 mg/kg, route oral; details: in vivo
[26] = Tmax in Balb/c mouse at 20 mg/kg, po by LC-MS analysis; assay type: ADME, organism-based; details: in vivo
[27] = Apparent half life in Balb/c mouse pretreated with CYP inhibitor ABT at 20 mg/kg, po by LC-MS analysis; assay type: ADME, organism-based; details: in vivo, read-out: t1/2(app) (converted)
[28] = system: Mus musculus; experiment: AUC (0 to infinity) in Balb/c mouse at 2 mg/kg, iv by LC-MS analysis; assay type: ADME, organism-based; set-up: dose 2 mg/kg, route intravenous, time infinity; details: in vivo
[29] = Tmax in Balb/c mouse pretreated with CYP inhibitor ABT at 20 mg/kg, po by LC-MS analysis; assay type: ADME, organism-based; details: in vivo
[30] = Apparent half life in Balb/c mouse at 2 mg/kg, iv by LC-MS analysis; assay type: ADME, organism-based; details: in vivo, read-out: t1/2(app) (converted)
[31] = system: Mus musculus; experiment: AUC (0 to infinity) in Balb/c mouse pretreated with CYP inhibitor ABT at 20 mg/kg, po by LC-MS analysis; assay type: ADME, organism-based; set-up: dose 20 mg/kg, route oral, time infinity; details: in vivo
[32] = Apparent half life in Balb/c mouse at 20 mg/kg, po by LC-MS analysis; assay type: ADME, organism-based; details: in vivo, read-out: t1/2(app) (converted)

Structure (SMILES)	remaining at 0.5 h, 0.1 µM [1] [%]	remaining at 0.5 h, 0.1 µM [2] [%]	remaining at 0.5 h, 0.1 µM [3] [%]	also measured
O=S(=O)(CCO)c1cccc(-c2ccc3nccc(-c4ccncc4)c3n2)c1	52	95	59	–
O=S(=O)(c1cccc(-c2ccc3nccc(-c4ccncc4)c3n2)c1)N1CCC(O)CC1	7	5	11	–
O=S(=O)(NCCN1CCCC1)c1cccc(-c2ccc3nccc(-c4ccnc(C(F)(F)F)c4)c3n2)c1	8	14	16	–
NS(=O)(=O)c1cccc(-c2ccc3nccc(-c4ccncc4F)c3n2)c1	–	–	–	logD at 1 h [4]: 1.8 to 4.2
NS(=O)(=O)c1ccc(-c2ccc3nccc(-c4ccncc4)c3n2)cc1	13	76	36	–
O=S(=O)(NCc1ccccc1)c1cccc(-c2ccc3nccc(-c4ccncc4)c3n2)c1	2	42	6	logD at 1 h [4]: 1.8 to 4.2
O=S(=O)(NCCN1CCOCC1)c1cccc(-c2ccc3nccc(-c4ccncc4)c3n2)c1	< 1	< 1	< 1	–
Nc1cccc(-c2ccc3nccc(-c4ccncc4)c3n2)c1	54	78	61	–
CS(=O)(=O)Nc1ccc2nccc(-c3ccncc3)c2n1	95	96	94	–
C[C@@H]1CN(S(=O)(=O)c2cccc(-c3ccc4nccc(-c5ccncc5)c4n3)c2)C[C@H](C)N1	33	34	36	–
O=S(=O)(NCC1COC1)c1cccc(-c2ccc3nccc(-c4ccncc4)c3n2)c1	19	2	8	–
O=S(=O)(c1cccc(-c2ccc3nccc(-c4ccncc4)c3n2)c1)N1CC[C@H](O)C1	12	17	10	–
NS(=O)(=O)c1cccc(-c2ccc3nccc(-c4ccnc(C(F)(F)F)c4)c3n2)c1	97	95	96	logD at 1 h [4]: 1.8 to 4.2; Cmax [5]: 2230 nM; AUC [6]: 5591 µM/min; Tmax [7]: 4 h; Tmax [8]: 1 h; AUC [9]: 2035 µM/min; Drug metabolism [10]: Metabolite_Detected; Cmax at 96 h [11]: 750 nM; Tmax at 96 h [12]: 4 h; half-life [13]: 1980 min; Cmax [14]: 6.36 µM; Cmax [15]: 2800 nM; AUC [16]: 658 µM/min; Tmax [17]: 4 h; AUC [18]: 350 µM/min; Cmax [19]: 1470 nM; AUC [20]: 1198 µM/min; Vd [21]: 7 L/kg; Tmax [22]: 2.5 h
O=S(=O)(CCN1CCCC1)c1cccc(-c2ccc3nccc(-c4ccncc4)c3n2)c1	60	56	66	–
NS(=O)(=O)c1cccc(-c2ccc3nccc(-c4ccncc4)c3n2)c1	–	–	–	Cmax [23]: 5 µM; AUC [24]: 523 µM/min; Cmax [25]: 500 nM; Tmax [26]: 30 min; half-life [27]: 192 min; AUC [28]: 111 µM/min; Tmax [29]: 30 to 60 min; half-life [30]: 150 min; AUC [31]: 243 µM/min; half-life [32]: 96 min
NS(=O)(=O)c1cncc(-c2ccc3nccc(-c4cn[nH]c4)c3n2)c1	2	–	–	–
CS(=O)(=O)Nc1cccc(-c2ccc3nccc(-c4ccncc4)c3n2)c1	50	59	49	–
